In ChEMBL document CHEMBL3885881, “DrugMatrix”:

Species on record: Rattus norvegicus
Assay: DrugMatrix - Regimen: Daily Repeat
Type: toxicity, organism-based, Sprague-Dawley
Design: regimen Daily Repeat, gender Male, age 6-8 weeks
Details: in vivo, po, route oral GAVAGE, […]; for ABSOLUTE BASOPHIL / ABSOLUTE EOSINOPHIL / ABSOLUTE LYMPHOCYTE / ABSOLUTE MONOCYTE / ABSOLUTE SEGMENTED NEUTROPHIL / BASOPHIL / EOSINOPHIL / ERYTHROCYTE COUNT / HEMATOCRIT / HEMOGLOBIN / LEUKOCYTE COUNT / LYMPHOCYTE / MEAN CORPUSCULAR HEMOGLOBIN / MEAN CORPUSCULAR HEMOGLOBIN CONCENTRATION / MEAN CORPUSCULAR VOLUME / MONOCYTE / NEUTROPHIL / NUCLEATED RED BLOOD CELLS / PLATELET COUNT: tissue Blood; for ALANINE AMINOTRANSFERASE / ALBUMIN / ALKALINE PHOSPHATASE / ASPARTATE AMINOTRANSFERASE / BLOOD UREA NITROGEN / CARBON DIOXIDE / CHLORIDE / CHOLESTEROL / CREATININE / GLUCOSE / LACTATE DEHYDROGENASE / LIPASE / PHOSPHORUS / POTASSIUM / SODIUM / TOTAL BILIRUBIN / TOTAL PROTEIN / URIC ACID: tissue Plasma
[1] = 0 mg/kg, 72 h, dose level Control, time 3 day
[2] = 0 mg/kg, 120 h, dose level Control, time 5 day
[3] = 250 mg/kg, 72 h, dose level Low, time 3 day

CC(C)Cc1ccc(CC(=O)O)cc1 [IBUFENAC]
ABSOLUTE BASOPHIL [1]: 0 CELLS/uL
ABSOLUTE EOSINOPHIL [1]: 255.83 CELLS/uL
ABSOLUTE LYMPHOCYTE [1]: 11617.83 CELLS/uL
ABSOLUTE MONOCYTE [1]: 307.5 CELLS/uL
ABSOLUTE SEGMENTED NEUTROPHIL [1]: 1902.17 CELLS/uL
BASOPHIL [1]: 0%
EOSINOPHIL [1]: 1.83%
ERYTHROCYTE COUNT [1]: 5.58 x10E6/uL
HEMATOCRIT [1]: 33.62%
HEMOGLOBIN [1]: 12.42 G/DL
LEUKOCYTE COUNT [1]: 14.08 x10E3/uL
LYMPHOCYTE [1]: 82.67%
MEAN CORPUSCULAR HEMOGLOBIN [1]: 22.32 pg
MEAN CORPUSCULAR HEMOGLOBIN CONCENTRATION [1]: 36.98 G/DL
MEAN CORPUSCULAR VOLUME [1]: 60.4 fL
MONOCYTE [1]: 2.17%
NEUTROPHIL [1]: 13.33%
NUCLEATED RED BLOOD CELLS [1]: 0 /100WBC
PLATELET COUNT [1]: 1154.67 x10E3/uL
ALANINE AMINOTRANSFERASE [1]: 64.67 u/L
ALBUMIN [1]: 4.18 G/DL
ALKALINE PHOSPHATASE [1]: 382.67 u/L
ASPARTATE AMINOTRANSFERASE [1]: 123.17 u/L
BLOOD UREA NITROGEN [1]: 17.67 mg/dL
CARBON DIOXIDE [1]: 24.33 mmol/L
CHLORIDE [1]: 101.67 MEQ/L
CHOLESTEROL [1]: 76.5 mg/dL
CREATININE [1]: 0.2 mg/dL
GLUCOSE [1]: 175.33 mg/dL
LACTATE DEHYDROGENASE [1]: 331 u/L
LIPASE [1]: 10.17 u/L
PHOSPHORUS [1]: 12.77 mg/dL
POTASSIUM [1]: 6.65 MEQ/L
SODIUM [1]: 145.8 MEQ/L
TOTAL BILIRUBIN [1]: 0.2 mg/dL
TOTAL PROTEIN [1]: 6.07 G/DL
URIC ACID [1]: 1.78 mg/dL
ABSOLUTE BASOPHIL [2]: 0 CELLS/uL
ABSOLUTE EOSINOPHIL [2]: 155.33 CELLS/uL
ABSOLUTE LYMPHOCYTE [2]: 12695.83 CELLS/uL
ABSOLUTE MONOCYTE [2]: 475.67 CELLS/uL
ABSOLUTE SEGMENTED NEUTROPHIL [2]: 1989.83 CELLS/uL
BASOPHIL [2]: 0%
EOSINOPHIL [2]: 1%
ERYTHROCYTE COUNT [2]: 5.75 x10E6/uL
HEMATOCRIT [2]: 34.98%
HEMOGLOBIN [2]: 12.73 G/DL
LEUKOCYTE COUNT [2]: 15.32 x10E3/uL
LYMPHOCYTE [2]: 83%
MEAN CORPUSCULAR HEMOGLOBIN [2]: 22.17 pg
MEAN CORPUSCULAR HEMOGLOBIN CONCENTRATION [2]: 36.4 G/DL
MEAN CORPUSCULAR VOLUME [2]: 60.92 fL
MONOCYTE [2]: 3%
NEUTROPHIL [2]: 13%
NUCLEATED RED BLOOD CELLS [2]: 0 /100WBC
PLATELET COUNT [2]: 1081.33 x10E3/uL
ALANINE AMINOTRANSFERASE [2]: 55 u/L
ALBUMIN [2]: 4.12 G/DL
ALKALINE PHOSPHATASE [2]: 354.67 u/L
ASPARTATE AMINOTRANSFERASE [2]: 91 u/L
BLOOD UREA NITROGEN [2]: 15 mg/dL
CARBON DIOXIDE [2]: 27.17 mmol/L
CHLORIDE [2]: 100.5 MEQ/L
CHOLESTEROL [2]: 71.5 mg/dL
CREATININE [2]: 0.18 mg/dL
GLUCOSE [2]: 169.17 mg/dL
LACTATE DEHYDROGENASE [2]: 324 u/L
LIPASE [2]: 10.5 u/L
PHOSPHORUS [2]: 12.07 mg/dL
POTASSIUM [2]: 6.58 MEQ/L
SODIUM [2]: 141.92 MEQ/L
TOTAL BILIRUBIN [2]: 0.12 mg/dL
TOTAL PROTEIN [2]: 5.88 G/DL
URIC ACID [2]: 1.6 mg/dL
ABSOLUTE BASOPHIL [3]: 0 CELLS/uL
ABSOLUTE EOSINOPHIL [3]: 268.67 CELLS/uL
ABSOLUTE LYMPHOCYTE [3]: 13501.33 CELLS/uL
ABSOLUTE MONOCYTE [3]: 489 CELLS/uL
ABSOLUTE SEGMENTED NEUTROPHIL [3]: 2041 CELLS/uL
BASOPHIL [3]: 0%
EOSINOPHIL [3]: 1.67%
ERYTHROCYTE COUNT [3]: 5.57 x10E6/uL
HEMATOCRIT [3]: 33.83%
HEMOGLOBIN [3]: 12.4 G/DL
LEUKOCYTE COUNT [3]: 16.3 x10E3/uL
LYMPHOCYTE [3]: 83%
MEAN CORPUSCULAR HEMOGLOBIN [3]: 22.23 pg
MEAN CORPUSCULAR HEMOGLOBIN CONCENTRATION [3]: 36.67 G/DL
MEAN CORPUSCULAR VOLUME [3]: 60.7 fL
MONOCYTE [3]: 3%
NEUTROPHIL [3]: 12.33%
NUCLEATED RED BLOOD CELLS [3]: 0 /100WBC
PLATELET COUNT [3]: 1296 x10E3/uL
ALANINE AMINOTRANSFERASE [3]: 64.67 u/L
ALBUMIN [3]: 4.3 G/DL
ALKALINE PHOSPHATASE [3]: 362.33 u/L
ASPARTATE AMINOTRANSFERASE [3]: 94.67 u/L
BLOOD UREA NITROGEN [3]: 15.67 mg/dL
CARBON DIOXIDE [3]: 26.67 mmol/L
CHLORIDE [3]: 103 MEQ/L
CHOLESTEROL [3]: 79.33 mg/dL
CREATININE [3]: 0.15 mg/dL
GLUCOSE [3]: 164.67 mg/dL
LACTATE DEHYDROGENASE [3]: 128.67 u/L
LIPASE [3]: 9.67 u/L
PHOSPHORUS [3]: 11.4 mg/dL
POTASSIUM [3]: 6.53 MEQ/L
SODIUM [3]: 146.97 MEQ/L
TOTAL BILIRUBIN [3]: 0.17 mg/dL
TOTAL PROTEIN [3]: 6.03 G/DL
URIC ACID [3]: 1.43 mg/dL
